Measured values reported in US20030162803A1, “Anhydrovinblastine for the treatment of cancer” (priority 1997, published 2003).
Where a name gives a salt, the structure may show the parent alone. Read-outs that look alike come from different tables or passages of the source.

Columns and labels:
[1] = test system: H460 human non-small cell lung carcinoma; experiment: MTT cytotoxicity assay, H460; assay type: cell-based; settings: read-out: Drug Ic50
Experimental: (§1) Cytotoxicity experiments on AHVB were performed as direct comparisons with vincristine and Navelbine™ in order to assess its inherent antineoplastic profile against a variety of tumor cell types relative to other relevant vinca alkaloids. The cytotoxicity of AHVB was investigated in vitro against a panel of tumor cell lines of varying lineage in order to determine the specificity of its antitumor activity with respect to cell type.
(§2) Standard dose response cytotoxicity assays (R. Mosmass, J. Immunol. Meth., 65:55-64, 1983) were utilized to determine the IC50 (drug concentration required to induce 50% inhibition of tumor cell growth) for vincristine, Navelbine™ and AHVB. The indicated cell lines were obtained from either the ATCC or NCI tumor repository and were cultured in tissue culture media by standard techniques well known to those skilled in the art, prior to dilution to a defined cell concentration required for the studies in 96 well plates.
(§3) A wide range of drug concentrations were exposed to tumor cells growing at log phase in 96-well microtitre plates. Cell concentrations depended on the cell line as well as the length of time to be cultured. […] MCF7 cells were plated at a concentration of 7,000 and 1,500 cells per well for studies lasting 3 and 7 days, respectively. H460 cells were plated at a concentration of 2,500 and 1,000 cells per well for studies lasting 3 and 7 days, respectively. K562 cells were plated at a concentration of 1,500 and 10,000 cells per well for studies lasting 1 and 3 days, respectively. LS180 cells were plated at a concentration of 5,000 and 20,00 cells per well for studies lasting 3 and 7 days, respectively.
(§4) Subsequently the plates were incubated for the indicated time period. At specified times, cells were washed and subsequently exposed to the dye inclusion marker MTT (3-(4,5-dimethylthiazol-2-yl)-2,5-diphenyl tetrazolium), which accumulated into viable cells. MTT was added to the cells at a final concentration of 50 μg per well. After a 4 hour incubation, the cells were washed free of media and unreacted MTT, prior to addition of DMSO which was required to solubilize the insoluble formazan precipitate that formed in viable cells. After the sample was mixed through repeated pipetting, the coloured product was measured using a plate reader operating at 570 nm. The absorbance values obtained for cells cultured in the absence of drug was assumed to represent 100% viability.

[2] = test system: K562 human erythroleukaemia; experiment: MTT cytotoxicity assay, K562; assay type: cell-based; settings: read-out: Drug Ic50
Experimental: as §1, §2, §3, §4

[3] = Range-finding acute (14 day) single dose toxicity in healthy male Nb rats; assay type: in vivo; settings: single intraperitoneal injection; for subacutely toxic dosage (highest dose which allowed survival of all animals in a group): 14 day
Experimental: Range-finding acute (14 day), single dose toxicity studies were performed in healthy male Nb rats in order to determine the maximum tolerated dose of vincristine sulfate, Navelbine T and AHVB when administered as a single, intraperitoneal injection in these rodents (see Table 2).
To this end, healthy non-tumor bearing male Nb rats (weight range 333-399 grams) were divided in groups of 3 animals. Each group was used to test one drug at one dosage. The volumes within which the drugs were administered depended on the concentration of the drug solution (in saline) and the weight of the animals, and ranged from 0.1-1.0 ml. Saline was used as a control. The highest dose of each drug which allowed survival of all animals in a group (3 out of 3) was taken as the subacutely toxic dosage for the drug, i.e. 0.7 mg/kg for vincristine, 2.0 mg/kg for Navelbine™ and 3.0 mg/kg for AHVB.
The health of the animals was assessed by daily weight measurements in addition to behavioural indications of stress. Animals continued to be monitored throughout the complete 14 day study period. Animals were euthanized in the event of signs of severe stress or weight loss in excess of 20%. All animals were necropsied at the end of the study period or at the time of premature euthanasia.

[4] = test system: Nb2-U17 lymphoma transplants; experiment: Rat U17 lymphoma model (Nb2-U17 tumor transplants); assay type: in vivo, Nb rats; settings: for anti-tumor potency compared: 50% of individual maximum tolerated doses, FIG. 3
Text: The U17 cell line was originally derived from a transplantable malignant lymphoma that arose spontaneously in male Noble rats (British Columbia Cancer Research Centre Joint Animal Breeding Facility with parents obtained from the National Institutes of Health, Bethesda, Md.). The cell line is prolactin dependent and can readily be cultured in vitro. U17 derived solid tumors are generated by subcutaneous injection (via the trocar method) of a small (2 mm^2) piece of tumor tissue obtained from male Noble rat. Tumor tissue used for the implants arose two weeks after injection of 5×10^6 U17 cells (from culture) subcutaneously in the nape of the neck. For assessing the anti-tumor activity of AHVB, tumor bearing animals (2-4 gm tumors) were given a single treatment of drug and tumor size was measured as a function of time following treatment. The anti-tumor activity was assessed at a series of different doses in order to determine the maximum therapeutic dose of AHVB. Comparative studies between vincristine, vinblastine and AHVB were performed. For these studies anti-tumor activity was determined at the maximum therapeutic dose of each drug.
Cultures of the non-metastatic, pre-T Nb2 lymphoma line originally developed at The University of British Columbia and designated Nb2-U17 (Anticancer Research 14:2485-2492, 1994), and are available from the British Columbia Cancer Research Centre. Cells from exponentially growing Nb2-U17 suspension cultures were injected subcutaneously into methoxyflurane-anaesthetised, mature male Nb rats (5 rats; 310-380 grams; 5×10^6 cells/rat in 1 ml of culture medium) at the nape of the neck using a 1.5″ 20-gauge needle. […]
The oncolytic effects of each of the three drugs were assessed at a subacutely toxic dose, determined for each drug in preliminary studies using non-tumor-bearing, mature male Nb rats, i.e. 3.0, 2.0 and 0.7 mg/kg for AHVB, Navelbine™ and vincristine, respectively as illustrated in FIG. 2. In addition, each drug was assessed at 50% and 25% of its subacutely toxic dose. […]

[5] = test system: LS180 human colon carcinoma; experiment: MTT cytotoxicity assay, LS180; assay type: cell-based; settings: read-out: Drug Ic50
Experimental: as §1, §2, §3, §4

[6] = test system: P388 lymphocytic leukaemia; experiment: MTT cytotoxicity assay, P388; settings: for IC50: read-out: Drug Ic50
Experimental: Standard dose response cytotoxicity assays (R. Mosmass, J. Immunol. Meth., 65:55-64, 1983) were utilized to determine the IC50 (drug concentration required to induce 50% inhibition of tumor cell growth) for vincristine, Navelbine™ and AHVB.
A wide range of drug concentrations were exposed to tumor cells growing at log phase in 96-well microtitre plates. Cell concentrations depended on the cell line as well as the length of time to be cultured. Typically, P388 cells were plated at a concentration of 30,000, 2,000 and 750 cells per well for studies lasting 1, 3 and 7 days, respectively. MCF7 cells were plated at a concentration of 7,000 and 1,500 cells per well for studies lasting 3 and 7 days, respectively. H460 cells were plated at a concentration of 2,500 and 1,000 cells per well for studies lasting 3 and 7 days, respectively. K562 cells were plated at a concentration of 1,500 and 10,000 cells per well for studies lasting 1 and 3 days, respectively. LS180 cells were plated at a concentration of 5,000 and 20,00 cells per well for studies lasting 3 and 7 days, respectively. After plating all cell lines were incubated (CO2 incubator at 37° C., 5% CO2) for 24 hours prior to addition of the cytotoxic agent (See Table 1).
as §4
A cytotoxicity curve was generated to estimate the IC50 of vincristine, Navelbine™ and AHVB in the murine P388 cell line (see FIG. 5). In this study, P388 cells derived from an ascitic tumor grown in BDF1 were first separated from red cells employing Ficoll-Paque. Isolated white cells were washed twice then placed in serum containing tissue culture media (1×10^5 cells per ml of RPMI 1640 supplemented with L-glutamine, penicillin, streptomycin and 10% fetal bovine serum) and cultured for 2 hours. All non-adherent cells were collected and that cell population was defined as P388 cells and used for cytotoxicity assays 24 hours later.

[7] = test system: MCF7 human breast carcinoma; experiment: MTT cytotoxicity assay, MCF7; assay type: cell-based; settings: read-out: Drug Ic50
Experimental: as §1, §2, §3, §4

[8] = Homo sapiens, NCI-H460, 72 h, H460, exposure time 3 days
[9] = Homo sapiens, NCI-H460, 168 h, H460, exposure time 7 days
[10] = Homo sapiens, 24 h, K562, exposure time 1 day
[11] = Homo sapiens, 72 h, K562, exposure time 3 days
[12] = Homo sapiens, 72 h, LS180, exposure time 3 days
[13] = Homo sapiens, 168 h, LS180, exposure time 7 days
[14] = Homo sapiens, 72 h, MCF7, exposure time 3 days
[15] = Homo sapiens, 168 h, MCF7, exposure time 7 days

| SMILES | Mortality (surviving rats/injected rats) ([3]; 10 mg/kg) | subacutely toxic dosage (highest dose which allowed survival of all animals in a group) [3] | anti-tumor potency compared [4] | IC50 [1, 8] | IC50 [1, 9] | IC50 [2, 10] | IC50 [2, 11] | IC50 [5, 12] | IC50 [5, 13] | IC50 ([6]; Mus musculus, P388, 24 h) | IC50 ([6]; Mus musculus, P388, 72 h) | IC50 ([6]; Mus musculus, P388, 168 h) | IC50 [7, 14] | IC50 [7, 15] | further results |
| --- | --- | --- | --- | --- | --- | --- | --- | --- | --- | --- | --- | --- | --- | --- | --- |
| CCC1=C[C@H]2CN(CCc3c([nH]c4ccccc34)[C@@](C(=O)OC)(c3cc4c(cc3OC)N(C)[C@H]3[C@@](O)(C(=O)OC)[C@H](OC(C)=O)[C@]5(CC)C=CCN6CC[C@]43[C@@H]65)C2)C1 [AHVB, 3′,4′-anhydrovinblastine] | 0 surviving rats/injected rats | 3.0 mg/kg | less potent than vincristine |  |  |  |  |  |  |  |  |  |  |  | IC50 ([1]; H460, exposure time 3 days): 10 nM; IC50 ([1]; H460, exposure time 7 days): 5 nM; IC50 ([2]; K562, exposure time 1 day): > 50 nM; IC50 ([2]; K562, exposure time 3 days): 18.8 ± 8.8 nM; Mortality (surviving rats/injected rats) ([3]; 4.4 mg/kg): 0 surviving rats/injected rats; IC50 ([5]; LS180, exposure time 3 days): > 50 nM; IC50 ([5]; LS180, exposure time 7 days): 17.5 nM; fold less active on per molar basis than vincristine and Navelbine ([6]; in vitro tests, Table I and FIG. 5): 10 to 15 fold; IC50 ([6]; P388, exposure time 1 day): 140 ± 53 nM; IC50 ([6]; P388, exposure time 3 days): 15 ± 8.7 nM; IC50 ([6]; P388, exposure time 7 days): 20 nM; IC50 ([7]; MCF7, exposure time 3 days): > 2500 nM; IC50 ([7]; MCF7, exposure time 7 days): 31.3 ± 12.4 nM |
| CCC1=C[C@@H]2CN(C1)Cc1c([nH]c3ccccc13)[C@@](C(=O)OC)(c1cc3c(cc1OC)N(C)[C@H]1[C@@](O)(C(=O)OC)[C@H](OC(C)=O)[C@]4(CC)C=CCN5CC[C@]31[C@@H]54)C2 [Navelbine, 3′,4′-didehydro-4′-deoxy-C′-norvincaleukoblastine-di-L-tartrate] | 0 surviving rats/injected rats | 2.0 mg/kg | less potent than AHVB | 0.3 nM | > 0.5 nM | > 50 nM | 2.5 ± 2.2 nM | > 50 nM | 0.5 nM | 20 nM | 0.7 ± 0.3 nM | 2.5 nM | > 2500 nM | 2.6 ± 1.6 nM | Mortality (surviving rats/injected rats) ([3]; 5 mg/kg): 0 surviving rats/injected rats |
| CC[C@]1(O)C[C@H]2CN(CCc3c([nH]c4ccccc34)[C@@](C(=O)OC)(c3cc4c(cc3OC)N(C=O)[C@H]3[C@@](O)(C(=O)OC)[C@H](OC(C)=O)[C@]5(CC)C=CCN6CC[C@]43[C@@H]65)C2)C1 [Vincristine, Sulfate of 22-oxovincaleukoblastine] |  | 0.7 mg/kg |  | 3.5 nM | 2.5 nM | > 50 nM | 1.5 ± 0.4 nM | > 50 nM | 1.5 nM | 11 ± 3.6 nM | 1 ± 0.3 nM | 2 nM | > 2500 nM | 2.6 ± 1.6 nM | Mortality (surviving rats/injected rats) ([3]; 1 mg/kg): 0 surviving rats/injected rats; recurrence of tumors ([4]; single intraperitoneal subacutely toxic dose, FIG. 2): not observed |
